Test results taken from ChEMBL document CHEMBL4765432, “Design and synthesis of novel Flavone-based histone deacetylase inhibitors antagonizing activation of STAT3 in breast cancer” (Eur J Med Chem, 2020).
pIC50: −log10 of the molar value. Calls of active or inactive are those of the source. No cut-off for these calls is given here.

Assays:
[1] = Inhibition of HDAC in human HeLa cell extracts assessed as inhibition of substrate deacetylation using Boc-Lys (q-Ac)-AMC as substrate incubated for 10 mins followed by substrate addition and measured after 30 mins by fluorescence based assay; format: tissue-based
HepG2 = assay: Cytotoxicity against human HepG2 cells assessed as reduction in cell viability incubated for 48 hrs by MTT assay; format: functional, cell-based; conditions: HepG2, 48 h
MDA-MB-231 [2] = assay: Induction of apoptosis in human MDA-MB-231 cells assessed as viable cells at 5 uM incubated for 72 hrs by annexinV-FITC and PI staining based flow cytometry analysis (reference value: 90.3 %); format: functional; conditions: read-out: Activity
4T1 [3] = assay: Induction of cell cycle arrest in mouse 4T1 cells assessed as G2/M phase accumulation at 2 uM incubated for 24 hrs by PI staining based flow cytometry analysis (reference value: 38.51 %); format: functional
4T1 [4] = assay: Induction of apoptosis in mouse 4T1 cells assessed as viable cells at 5 uM incubated for 72 hrs by annexinV-FITC and PI staining based flow cytometry analysis (reference value: 91.1 %); format: functional; conditions: read-out: Activity
[5] = target: Signal transducer and activator of transcription 3 (Homo sapiens) (UniProt P40763); assay: Inhibition of STAT3 in human MDA-MB-231 cells assessed as reduction in STAT-3 phosphorylation at 2.5 to 40 uM incubated for 8 hrs by Western blot analysis; format: cell-based; conditions: dose 2.5-40 µM
MDA-MB-231 [6] = assay: Induction of cell cycle arrest in human MDA-MB-231 cells assessed as G0/G1 phase accumulation at 2 uM incubated for 24 hrs by PI staining based flow cytometry analysis (reference value: 29.10 %); format: functional
MDA-MB-231 [7] = assay: Induction of apoptosis in human MDA-MB-231 cells assessed as early apoptotic cells at 5 uM incubated for 72 hrs by annexinV-FITC and PI staining based flow cytometry analysis (reference value: 5.57 %); format: functional
[8] = Genotoxicity in Salmonella typhimurium WP2 uvrA (pKM 101) by Ames test; format: toxicity; conditions: salmonella enterica subsp. enterica serovar typhimurium
MDA-MB-231 [9] = assay: Induction of apoptosis in human MDA-MB-231 cells assessed as late apoptotic cells at 5 uM incubated for 72 hrs by annexinV-FITC and PI staining based flow cytometry analysis (reference value: 3.79 %); format: functional
[10] = Genotoxicity in Salmonella typhimurium TA1537 by Ames test; format: toxicity; conditions: salmonella enterica subsp. enterica serovar typhimurium
T47D = assay: Cytotoxicity against human T47D cells assessed as reduction in cell viability incubated for 48 hrs by MTT assay; format: functional, cell-based
[11] = Genotoxicity in Salmonella typhimurium TA97a by Ames test; format: toxicity; conditions: salmonella enterica subsp. enterica serovar typhimurium
4T1 [12] = assay: Induction of cell cycle arrest in mouse 4T1 cells assessed as S phase accumulation at 2 uM incubated for 24 hrs by PI staining based flow cytometry analysis (reference value: 19.43 %); format: functional
4T1 [13] = assay: Induction of apoptosis in mouse 4T1 cells implanted in BALB/c mouse assessed as increase in caspase-3 cleavage by immunohistochemistry method; format: functional, cell-based
MDA-MB-231 [14] = assay: Induction of apoptosis in human MDA-MB-231 cells xenografted in BALB/c mouse assessed as increase in caspase-3 cleavage by immunohistochemistry method; format: functional, cell-based
MDA-MB-231 [15] = assay: Induction of apoptosis in human MDA-MB-231 cells assessed as necrotic cells at 5 uM incubated for 72 hrs by annexinV-FITC and PI staining based flow cytometry analysis (reference value: 0.330 %); format: functional
[16] = Genotoxicity in Salmonella typhimurium TA100 by Ames test; format: toxicity; conditions: salmonella enterica subsp. enterica serovar typhimurium
4T1 [17] = assay: Induction of apoptosis in mouse 4T1 cells assessed as late apoptotic cells at 5 uM incubated for 72 hrs by annexinV-FITC and PI staining based flow cytometry analysis (reference value: 2.24 %); format: functional
MDA-MB-231 [18] = assay: Induction of cell cycle arrest in human MDA-MB-231 cells assessed as S phase accumulation at 2 uM incubated for 24 hrs by PI staining based flow cytometry analysis (reference value: 43.82 %); format: functional
[19] = Genotoxicity in Salmonella typhimurium TA98 by Ames test; format: toxicity; conditions: salmonella enterica subsp. enterica serovar typhimurium
[20] = Genotoxicity in Salmonella typhimurium TA1535 by Ames test; format: toxicity; conditions: salmonella enterica subsp. enterica serovar typhimurium
4T1 [21] = assay: Induction of apoptosis in mouse 4T1 cells assessed as early apoptotic cells at 5 uM incubated for 72 hrs by annexinV-FITC and PI staining based flow cytometry analysis (reference value: 1.65 %); format: functional
4T1 [22] = assay: Induction of apoptosis in mouse 4T1 cells assessed as necrotic cells at 5 uM incubated for 72 hrs by annexinV-FITC and PI staining based flow cytometry analysis (reference value: 5.00 %); format: functional
4T1 [23] = assay: Induction of cell cycle arrest in mouse 4T1 cells assessed as G0/G1 phase accumulation at 2 uM incubated for 24 hrs by PI staining based flow cytometry analysis (reference value: 42.06 %); format: functional
MDA-MB-231 [24] = assay: Induction of cell cycle arrest in human MDA-MB-231 cells assessed as G2/M phase accumulation at 2 uM incubated for 24 hrs PI staining based by flow cytometry analysis (reference value: 27.08 %); format: functional
[25] = target: Signal transducer and activator of transcription 3 (Homo sapiens) (UniProt P40763); assay: Inhibition of STAT3 in human MDA-MB-231 cells assessed as reduction in STAT-3 phosphorylation incubated for 8 hrs by Western blot analysis; format: cell-based; conditions: dose 2.5-20 µM
[26] = Toxicity in C57BL/6 mouse assessed death of organism at 50 mg/kg, po observed for 20 days; format: organism-based; conditions: in vivo, 480 h, time 20 day
[27] = Toxicity in C57BL/6 mouse assessed death of organism at 300 mg/kg, ip observed for 24 hrs; format: organism-based; conditions: in vivo
MDA-MB-231 [28] = assay: Induction of apoptosis in human MDA-MB-231 cells assessed as necrotic cells at 10 uM incubated for 72 hrs by annexinV-FITC and PI staining based flow cytometry analysis (reference value: 0.330 %); format: functional
MDA-MB-231 [29] = assay: Induction of apoptosis in human MDA-MB-231 cells assessed as late apoptotic cells at 10 uM incubated for 72 hrs by annexinV-FITC and PI staining based flow cytometry analysis (reference value: 3.79 %); format: functional
MDA-MB-231 [30] = assay: Induction of apoptosis in human MDA-MB-231 cells assessed as early apoptotic cells at 10 uM incubated for 72 hrs by annexinV-FITC and PI staining based flow cytometry analysis (reference value: 5.57 %); format: functional
4T1 [31] = assay: Induction of apoptosis in mouse 4T1 cells assessed as early apoptotic cells at 10 uM incubated for 72 hrs by annexinV-FITC and PI staining based flow cytometry analysis (reference value: 1.65 %); format: functional
4T1 [32] = assay: Induction of apoptosis in mouse 4T1 cells assessed as necrotic cells at 10 uM incubated for 72 hrs by annexinV-FITC and PI staining based flow cytometry analysis (reference value: 5.00 %); format: functional
4T1 [33] = assay: Induction of apoptosis in mouse 4T1 cells assessed as late apoptotic cells at 10 uM incubated for 72 hrs by annexinV-FITC and PI staining based flow cytometry analysis (reference value: 2.24 %); format: functional
4T1 [34] = assay: Induction of apoptosis in mouse 4T1 cells assessed as viable cells at 10 uM incubated for 72 hrs by annexinV-FITC and PI staining based flow cytometry analysis (reference value: 91.1 %); format: functional; conditions: read-out: Activity
MDA-MB-231 [35] = assay: Induction of apoptosis in human MDA-MB-231 cells assessed as viable cells at 10 uM incubated for 72 hrs by annexinV-FITC and PI staining based flow cytometry analysis (reference value: 90.3 %); format: functional; conditions: read-out: Activity

Signal transducer and activator of transcription 3 (Homo sapiens), sequence (P40763 whole entry): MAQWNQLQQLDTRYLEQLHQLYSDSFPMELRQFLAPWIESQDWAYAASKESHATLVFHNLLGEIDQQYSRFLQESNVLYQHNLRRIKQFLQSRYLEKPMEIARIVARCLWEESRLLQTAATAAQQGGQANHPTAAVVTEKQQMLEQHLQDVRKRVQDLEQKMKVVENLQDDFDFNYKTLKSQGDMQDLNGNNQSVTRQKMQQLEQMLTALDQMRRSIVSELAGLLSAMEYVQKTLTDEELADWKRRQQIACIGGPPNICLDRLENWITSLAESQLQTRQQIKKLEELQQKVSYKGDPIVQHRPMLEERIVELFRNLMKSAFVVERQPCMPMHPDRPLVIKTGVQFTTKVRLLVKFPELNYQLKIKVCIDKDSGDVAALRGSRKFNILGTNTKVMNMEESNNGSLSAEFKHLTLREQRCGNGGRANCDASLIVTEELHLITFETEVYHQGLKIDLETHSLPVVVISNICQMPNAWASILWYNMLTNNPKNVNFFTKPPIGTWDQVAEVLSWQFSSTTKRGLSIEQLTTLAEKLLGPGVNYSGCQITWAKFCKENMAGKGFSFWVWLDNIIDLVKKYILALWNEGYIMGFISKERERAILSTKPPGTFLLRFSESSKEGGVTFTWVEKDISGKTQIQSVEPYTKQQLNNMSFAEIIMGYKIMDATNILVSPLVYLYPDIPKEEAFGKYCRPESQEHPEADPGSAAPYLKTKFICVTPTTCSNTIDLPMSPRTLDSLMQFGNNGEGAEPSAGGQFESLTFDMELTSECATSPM

SMILES: O=C(CCCCCCOc1cc(O)c2c(=O)cc(-c3ccc(O)cc3)oc2c1)NO
- pIC50 [1]: 6.03

SMILES: O=C(CCCCCOc1cc(O)c2c(=O)cc(-c3ccc(OCCN4CCOCC4)cc3)oc2c1)NO
- pIC50 [1]: 6.23

SMILES: O=C(CCCCCCC(=O)Nc1ccccc1)NO [VORINOSTAT]
- pIC50 (HepG2): 5.64
- viability at 5 µM (MDA-MB-231 [2]): 53.8%
- Activity (4T1 [3]): 22.68%
- viability at 5 µM (4T1 [4]): 35.6%
- inhibition [5]: inactive
- Activity (MDA-MB-231 [6]): 72.99%
- Activity (MDA-MB-231 [7]): 20.1%
- Activity [8]: Non-Toxic
- Activity (MDA-MB-231 [9]): 25.8%
- Activity [10]: Non-Toxic
- pIC50 (T47D): 5.65
- Activity [11]: Toxic
- Activity (4T1 [12]): 23.63%
- Activity (4T1 [13]): Active
- Activity (MDA-MB-231 [14]): Active
- Activity (MDA-MB-231 [15]): 0.356%
- Activity [16]: Toxic
- Activity (4T1 [17]): 13.4%
- Activity (MDA-MB-231 [18]): 8.32%
- Activity [19]: Non-Toxic
- Activity [20]: Non-Toxic
- Activity (4T1 [21]): 48.9%
- Activity (4T1 [22]): 2.08%
- Activity (4T1 [23]): 53.69%
- Activity (MDA-MB-231 [24]): 18.69%

SMILES: COc1ccc(-c2cc(=O)c3c(O)cc(OCCCCCC(=O)NO)cc3o2)cc1
- pIC50 [1]: 2.34

SMILES: COc1ccc(-c2coc3cc(OCCCCCCCC(=O)NO)cc(O)c3c2=O)cc1
- pIC50 [1]: < 5.00

SMILES: O=C(CCCCOc1cc(O)c2c(=O)cc(-c3ccccc3)oc2c1)NO
- pIC50 [1]: 5.48

SMILES: O=C(COc1cc(O)c2c(=O)cc(-c3ccccc3)oc2c1)NO
- pIC50 [1]: < 5.00

SMILES: CN(C)CCCOc1ccc(-c2cc(=O)c3c(O)cc(OCCCCCC(=O)NO)cc3o2)cc1.Cl
- pIC50 [1]: 7.19
- inhibition [25]: Dose-dependent effect
- Activity [26]: Toxic
- Activity [27]: Toxic

SMILES: CN(C)CCOc1ccc(-c2cc(=O)c3c(O)cc(OCCCCCCCC(=O)NO)cc3o2)cc1
- pIC50 [1]: 5.78

SMILES: CN1CCN(CCOc2ccc(-c3cc(=O)c4c(O)cc(OCCCCCC(=O)NO)cc4o3)cc2)CC1
- pIC50 [1]: 6.65

SMILES: COC(=O)CCCCCOc1cc(O)c2c(=O)cc(-c3ccc(OCCN(C)C)cc3)oc2c1
- inhibition [5]: Active

SMILES: COc1ccc(-c2coc3cc(OCCCCCC(=O)NO)ccc3c2=O)cc1
- pIC50 [1]: 6.15

SMILES: O=C(CCCCCOc1cc(O)c2c(=O)cc(-c3ccc(OCCN4CCCC4)cc3)oc2c1)NO
- pIC50 [1]: < 5.00

SMILES: COc1ccc(-c2coc3cc(OCCCCCC(=O)NO)cc(O)c3c2=O)cc1
- pIC50 [1]: < 5.00

SMILES: COc1ccc(-c2coc3cc(OCCCCCCC(=O)NO)cc(O)c3c2=O)cc1
- pIC50 [1]: < 5.00

SMILES: CN(C)CCCOc1ccc(-c2cc(=O)c3c(O)cc(OCCCCCCCC(=O)NO)cc3o2)cc1
- pIC50 [1]: 7.28

SMILES: O=C(CCCCCCCOc1cc(O)c2c(=O)cc(-c3ccc(O)cc3)oc2c1)NO
- pIC50 [1]: 6.21

SMILES: O=C(CCCCCCCOc1cc(O)c2c(=O)cc(-c3ccccc3)oc2c1)NO
- pIC50 [1]: 6.40

SMILES: O=C(CCCCCCOc1cc(O)c2c(=O)cc(-c3ccccc3)oc2c1)NO
- pIC50 [1]: 7.06

SMILES: O=C(CCCCCOc1cc(O)c2c(=O)cc(-c3ccccc3)oc2c1)NO
- pIC50 [1]: 7.28

SMILES: COc1ccc(-c2coc3cc(OCCCCCCCC(=O)NO)ccc3c2=O)cc1
- pIC50 [1]: < 5.00

SMILES: COc1ccc(-c2cc(=O)c3c(O)cc(OCCCCCCC(=O)NO)cc3o2)cc1
- pIC50 [1]: 5.28

SMILES: COc1ccc(-c2cc(=O)c3c(O)cc(OCCCCCCCC(=O)NO)cc3o2)cc1
- pIC50 [1]: < 5.00

SMILES: O=C(CCCOc1cc(O)c2c(=O)cc(-c3ccccc3)oc2c1)NO
- pIC50 [1]: < 5.00

SMILES: CN(C)CCCOc1ccc(-c2cc(=O)c3c(O)cc(OCCCCCCC(=O)NO)cc3o2)cc1
- pIC50 [1]: 7.60

SMILES: CN(C)CCOc1ccc(-c2cc(=O)c3c(O)cc(OCCCCCCC(=O)NO)cc3o2)cc1
- pIC50 [1]: 6.14

SMILES: O=c1cc(-c2ccc(O)cc2)oc2cc(O)cc(O)c12 [APIGENIN]
- pIC50 [1]: < 5.00
- Activity (MDA-MB-231 [28]): 0.02%
- Activity (MDA-MB-231 [29]): 1.59%
- Activity (MDA-MB-231 [30]): 8.28%
- Activity (4T1 [31]): 3.22%
- Activity (4T1 [32]): 4.45%
- Activity (4T1 [33]): 3.22%
- viability at 10 µM (4T1 [34]): 89.1%
- viability at 10 µM (MDA-MB-231 [35]): 90.1%

SMILES: O=C(CCCCCOc1cc(O)c2c(=O)cc(-c3ccc(O)cc3)oc2c1)NO
- pIC50 [1]: 6.53

SMILES: COc1ccc(-c2coc3cc(OCCCCCCC(=O)NO)ccc3c2=O)cc1
- pIC50 [1]: < 5.00

SMILES: O=C(CCCCCOc1cc(O)c2c(=O)cc(-c3ccc(OCCN4CCCCC4)cc3)oc2c1)NO
- pIC50 [1]: 6.88
